Laboratory results reported in ChEMBL document CHEMBL5230129, “Antibacterial activities with the structure-activity relationship of coumarin derivatives” (2020).
Values after ≈ are worked out from the molar mass of the structure shown.

Tests used:
Assay type in all cases: functional
[1] = tested on: Escherichia coli; assay: Antibacterial activity against Escherichia coli MTCC 40 assessed as zone of inhibition incubated for 24 hrs by well-plate method
[2] = tested on: Micrococcus luteus; assay: Antibacterial activity against Micrococcus luteus assessed as zone of inhibition incubated for 24 hrs by well-diffusion method
[3] = tested on: Escherichia coli; assay: Antibacterial activity against Escherichia coli assessed as zone of inhibition incubated for 24 hrs by well-diffusion method
[4] = tested on: Staphylococcus aureus; assay: Antibacterial activity against Staphylococcus aureus assessed as zone of inhibition incubated for 24 hrs by well-diffusion method
[5] = tested on: Pseudomonas aeruginosa; assay: Antibacterial activity against Pseudomonas aeruginosa assessed as zone of inhibition incubated for 24 hrs by well-diffusion method
[6] = tested on: Escherichia coli; assay: Antibacterial activity against Escherichia coli assessed as inhibition of bacterial growth
[7] = tested on: Bacillus cereus; assay: Antibacterial activity against Bacillus cereus ATCC-14579 assessed as zone of inhibition incubated for 24 hrs by paper disk diffusion assay
[8] = tested on: Staphylococcus aureus; assay: Antibacterial activity against Staphylococcus aureus NCTC-7447 assessed as zone of inhibition incubated for 24 hrs by paper disk diffusion assay
[9] = tested on: Helicobacter pylori; assay: Antibacterial activity against Helicobacter pylori ATCC43504 assessed as inhibition of bacterial growth incubated for 72 hrs by micro-dilution broth assay
[10] = tested on: Staphylococcus aureus; assay: Antibacterial activity against Staphylococcus aureus MTCC 121 assessed as zone of inhibition incubated for 24 hrs by well-plate method
[11] = tested on: Escherichia coli; assay: Antibacterial activity against Escherichia coli MTCC 40 assessed as inhibition of bacterial growth incubated for 24 hrs by well-plate method
[12] = tested on: Staphylococcus aureus; assay: Antibacterial activity against Staphylococcus aureus MTCC 121 assessed as inhibition of bacterial growth incubated for 24 hrs by well-plate method
[13] = tested on: Bacillus cereus; assay: Antibacterial activity against Bacillus cereus MTCC 430 assessed as zone of inhibition incubated overnight by Kirby-Bauer disc diffusion method
[14] = tested on: Escherichia coli; assay: Antibacterial activity against Escherichia coli MTCC 1586 assessed as zone of inhibition incubated overnight by Kirby-Bauer disc diffusion method
[15] = tested on: Staphylococcus aureus; assay: Antibacterial activity against Staphylococcus aureus MTCC 740 assessed as zone of inhibition incubated overnight by Kirby-Bauer disc diffusion method
[16] = tested on: Escherichia coli; assay: Antibacterial activity against Escherichia coli assessed as inhibition of bacterial growth relative to control
[17] = tested on: Bacillus subtilis; assay: Antibacterial activity against Bacillus subtilis assessed as inhibition of bacterial growth relative to control
[18] = tested on: Klebsiella pneumoniae; assay: Antibacterial activity against Klebsiella pneumoniae assessed as zone of inhibition incubated for 24 hrs by disk diffusion assay
[19] = tested on: Pseudomonas aeruginosa; assay: Antibacterial activity against Pseudomonas aeruginosa assessed as inhibition of bacterial growth incubated for 24 hrs by broth microdilution assay
[20] = tested on: Staphylococcus aureus; assay: Antibacterial activity against Staphylococcus aureus MTCC 96 assessed as inhibition of bacterial growth incubated for 18 to 20 hrs by broth microdilution assay; settings: time 18-20 hrs
[21] = tested on: Pseudomonas aeruginosa; assay: Antibacterial activity against Pseudomonas aeruginosa MTCC 1034 assessed as inhibition of bacterial growth by broth micro dilution assay
[22] = tested on: Staphylococcus aureus; assay: Antibacterial activity against Staphylococcus aureus assessed as inhibition of bacterial growth by broth dilution assay
[23] = tested on: Staphylococcus aureus; assay: Antibacterial activity against Staphylococcus aureus assessed as inhibition of bacterial growth by broth micro dilution assay
[24] = tested on: Staphylococcus aureus; assay: Antibacterial activity against Staphylococcus aureus MTCC 3160 assessed as inhibition of bacterial growth by broth micro dilution assay
[25] = tested on: Escherichia coli; assay: Antibacterial activity against Escherichia coli MTCC 443 assessed as inhibition of bacterial growth incubated for 18 to 20 hrs by broth microdilution assay; settings: time 18-20 hrs
[26] = tested on: Staphylococcus aureus; assay: Antibacterial activity against Staphylococcus aureus ATCC-29213 assessed as inhibition of bacterial growth incubated for 16 hrs by agar-well diffusion assay
[27] = tested on: Pseudomonas; assay: Antibacterial activity against Pseudomonas assessed as zone of inhibition
[28] = tested on: Bacillus subtilis; assay: Antibacterial activity against Bacillus subtilis assessed as inhibition of bacterial growth by broth dilution assay
[29] = tested on: Bacillus; assay: Antibacterial activity against Bacillus assessed as inhibition of bacterial growth by broth micro dilution assay
[30] = tested on: Micrococcus luteus; assay: Antibacterial activity against Micrococcus luteus ATCC 9341 assessed as inhibition of bacterial growth incubated for 20 hrs by broth doubling dilution assay
[31] = tested on: Staphylococcus epidermidis; assay: Antibacterial activity against Staphylococcus epidermidis ATCC 12228 assessed as inhibition of bacterial growth incubated for 20 hrs by broth doubling dilution assay
[32] = tested on: Bacillus cereus; assay: Antibacterial activity against Bacillus cereus ATCC 10702 assessed as inhibition of bacterial growth incubated for 20 hrs by broth doubling dilution assay
[33] = tested on: Escherichia coli; assay: Antibacterial activity against Escherichia coli ATCC 25922 assessed as zone of inhibition incubated for 24 hrs by paper disk method
[34] = tested on: Pseudomonas aeruginosa; assay: Antibacterial activity against Pseudomonas aeruginosa ATCC 27853 assessed as zone of inhibition incubated for 24 hrs by paper disk method
[35] = tested on: Staphylococcus aureus; assay: Antibacterial activity against Staphylococcus aureus ATCC 25923 assessed as zone of inhibition incubated for 24 hrs by paper disk method

SMILES: O=c1oc2ccc3ccccc3c2cc1-c1csc(N/N=C/c2cn(-c3ccccc3)nc2-c2cc3ccccc3oc2=O)n1
- inhibition zone (IZ) [1]: 21 mm

SMILES: O=c1oc2ccccc2c(O)c1C(c1c(Cl)cccc1Cl)c1c(O)c2ccccc2oc1=O
- inhibition zone (IZ) [2]: 10 mm
- inhibition zone (IZ) [3]: 10 mm
- inhibition zone (IZ) [4]: 10 mm
- inhibition zone (IZ) [5]: 10 mm

SMILES: COc1ccc(C(=O)C(c2c(O)c3ccccc3oc2=O)N2CCCCC2)cc1 (configuration not stated)
- MIC [6]: 6.25 µg/mL (≈ 15.9 µM)

SMILES: O=c1oc2ccccc2c(O)c1-c1ccn(-c2ccccc2)n1
- inhibition zone (IZ) [7]: 16 mm
- inhibition zone (IZ) [8]: 20 mm

SMILES: COc1ccc2c(CC(=O)O)cc(=O)oc2c1
- MIC [9]: 49 µg/mL (≈ 209 µM)

SMILES: CN[C@@H]1[C@H](O[C@H]2[C@H](O[C@H]3[C@H](O)[C@@H](O)[C@H](N=C(N)N)[C@@H](O)[C@@H]3N=C(N)N)O[C@@H](C)[C@]2(O)C=O)O[C@@H](CO)[C@H](O)[C@H]1O [STREPTOMYCIN]
- inhibition zone (IZ) [10]: 20 mm
- inhibition zone (IZ) [1]: 22 mm
- MIC [11]: 12.5 µg/mL (≈ 21.5 µM)
- MIC [12]: 12.5 µg/mL (≈ 21.5 µM)

SMILES: CC[N+](CC)(CC)CCCCCCCCCCCCNCc1cn(Cc2cc(=O)oc3cc4c(cc23)CCC(C)(C)O4)nn1.[Br-]
- inhibition zone (IZ) [13]: 24 mm
- inhibition zone (IZ) [14]: 8 mm
- inhibition zone (IZ) [15]: 6 mm

SMILES: COC(=O)c1nnn(CC(=O)c2cc3cc(Cl)ccc3oc2=O)c1C(=O)OC
- inhibition (INH) [16]: 83.3%
- inhibition (INH) [17]: 83.3%

SMILES: Cc1cc(=O)oc2cc(O)ccc12 [HYMECROMONE]
- MIC [9]: 50 µg/mL (≈ 284 µM)

SMILES: COc1ccc(Nc2nnc(COc3ccc4c(C)cc(=O)oc4c3)s2)cc1
- inhibition zone (IZ) [18]: 15 mm

SMILES: Cc1cc(=O)oc2cc(OCc3nnc(Nc4ccc(Cl)cc4)s3)ccc12
- inhibition zone (IZ) [18]: 15 mm

SMILES: C[C@H]1COc2c(N3CCN(C)CC3)c(F)cc3c(=O)c(C(=O)O)cn1c23.C[C@H]1COc2c(N3CCN(C)CC3)c(F)cc3c(=O)c(C(=O)O)cn1c23.O [LEVOFLOXACIN]
- MIC [19]: 3.12 µg/mL

SMILES: Cc1cc(=O)oc2cc(OCc3nnc(Nc4ccc(Br)cc4)s3)ccc12
- inhibition zone (IZ) [18]: 16 mm

SMILES: O=C(O)c1cn(C2CC2)c2cc(N3CCNCC3)c(F)cc2c1=O [CIPROFLOXACIN]
- inhibition (INH) [16]: 100%
- MIC [20]: 50 µg/mL (≈ 151 µM)
- MIC [19]: 49 µg/mL (≈ 148 µM)
- MIC [21]: 1.6 µg/mL (≈ 4.83 µM)
- MIC [22]: 2 µg/mL (≈ 6.04 µM)
- MIC [23]: 2 µg/mL (≈ 6.04 µM)
- MIC [24]: 1.6 µg/mL (≈ 4.83 µM)
- MIC [25]: 25 µg/mL (≈ 75.4 µM)
- MIC [26]: 10 µg/mL (≈ 30.2 µM)
- inhibition zone (IZ) [27]: 7.5 mm
- MIC [28]: 2 µg/mL (≈ 6.04 µM)
- inhibition (INH) [17]: 100%
- MIC [29]: 2 µg/mL (≈ 6.04 µM)

SMILES: CC[N+](CC)(CC)CCCCCCCCNCc1cn(Cc2cc(=O)oc3c(O)c4c(cc23)CCC(C)(C)O4)nn1.[Br-]
- inhibition zone (IZ) [14]: 2 mm
- inhibition zone (IZ) [15]: 2 mm

SMILES: O=c1oc2ccccc2c(O)c1-c1cc[nH]n1
- inhibition zone (IZ) [8]: 10 mm

SMILES: CC[N+](CC)(CC)CCCCCCNCc1cn(Cc2cc(=O)oc3cc4c(cc23)CCC(C)(C)O4)nn1.[Br-]
- inhibition zone (IZ) [14]: 10 mm
- inhibition zone (IZ) [15]: 12 mm

SMILES: Cc1c(O)c(C(=O)CCc2ccccc2)c2oc(=O)cc(-c3ccccc3)c2c1O
- MIC [30]: 2 µg/mL (≈ 4.99 µM)
- MIC [31]: 1 µg/mL (≈ 2.5 µM)
- MIC [32]: 2 µg/mL (≈ 4.99 µM)

SMILES: COc1ccc(CNC(=O)COc2cc(=O)oc3ccccc23)c(OC)c1
- inhibition zone (IZ) [33]: 13 mm
- inhibition zone (IZ) [34]: 12 mm
- inhibition zone (IZ) [35]: 10 mm
